Earlier results in patent EP0974361A1, “METHOD OF USING ANTACID AGENT AND PHARMACEUTICAL PREPARATION CONTAINING ANTACID AGENT” (CHUGAI SEIYAKU KABUSHIKI KAISHA, priority 1996, dated 1997).
Like-named read-outs stand apart in the source and are kept apart here.

Q: With `CC(C)Cc1ccc(C(C)C(=O)O)cc1` (centres unmarked) [ibuprofen] as the compound, how does the absorption (used along with sucralfate (Anaya et al.)) read?
A: reduced and retarded

Q: Which “bioavailability dropped by” value (in vivo) does the source give for `CNC(=C[N+](=O)[O-])NCCSCc1ccc(CN(C)C)o1` [ranitidine] here?
A: 29%

Q: For `C[C@H]1O[C@@H](O[C@H]2[C@@H](O)C[C@H](O[C@H]3[C@@H](O)C[C@H](O[C@H]4CC[C@@]5(C)[C@H](CC[C@@H]6[C@@H]5C[C@@H](O)[C@]5(C)[C@@H](C7=CC(=O)OC7)CC[C@]65O)C4)O[C@@H]3C)O[C@@H]2C)C[C@H](O)[C@@H]1O` [digoxin], which drop in adsorption (used along with sucralfate (Giesing et al.)) is on record?
A: 19%

Q: For `CC(=O)N1CCN(c2ccc(OCC3COC(Cn4ccnc4)(c4ccc(Cl)cc4Cl)O3)cc2)CC1` (centres unmarked) [ketoconazole], which “bioavailability dropped by” value (used along with sucralfate (Goss et al.; Maconochie et al.)) is on record?
A: 21%

Q: For `CN/C(=N/CCSCc1nc[nH]c1C)NC#N` [cimetidine], which AUC (simultaneous administration of sucralfate (Yoshida et al.)) is on record?
A: drop
